From PubChem BioAssay AID1963847 (Molecular Pharmacology Branch, DTP, NCI, 2024)

System: 415267-285-R-J2-PDC complex spheroid viability
Test: Anticancer human tumor 415267-285-R-J2-PDC patient-derived breast carcinoma cell line growth inhibition [POLQ]
Settings: for IC50: curve of first compound; for viability, T/C: stronger effect = lower value; active = viability on the fitted dose curve at most 10% of control; inactive = the rest
Method in brief: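 Patient-derived tumour cells were co-cultured with HUVEC and mesenchymal stem cells as multicellular spheroids at 37 °C. They were treated with POLQ inhibitors (novobiocin, ART-558, RP6685) alone or combined with other agents. Top concentrations were at or near clinical Cmax (otherwise 10 microM; SN-38 at 1 microM), decreasing in half-log steps.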

[1] = second compound 0.0316 µM, first compound 0.0316 µM
[2] = second compound 0.0316 µM, first compound 0.1 µM
[3] = second compound 0.0316 µM, first compound 0.316 µM
[4] = second compound 0.0316 µM, first compound 1 µM
[5] = second compound 0.0316 µM, first compound 3.16 µM
[6] = second compound 0.0316 µM, first compound 10 µM
[7] = second compound 0.1 µM, first compound 0.0316 µM
[8] = second compound 0.1 µM, first compound 0.1 µM
[9] = second compound 0.1 µM, first compound 0.316 µM
[10] = second compound 0.1 µM, first compound 1 µM
[11] = second compound 0.1 µM, first compound 3.16 µM
[12] = second compound 0.1 µM, first compound 10 µM
[13] = second compound 0.316 µM, first compound 0.0316 µM
[14] = second compound 0.316 µM, first compound 0.1 µM
[15] = second compound 0.316 µM, first compound 0.316 µM
[16] = second compound 0.316 µM, first compound 1 µM
[17] = second compound 0.316 µM, first compound 3.16 µM
[18] = second compound 0.316 µM, first compound 10 µM
[19] = second compound 1 µM, first compound 0.0316 µM
[20] = second compound 1 µM, first compound 0.1 µM
[21] = second compound 1 µM, first compound 0.316 µM
[22] = second compound 1 µM, first compound 1 µM
[23] = second compound 1 µM, first compound 3.16 µM
[24] = second compound 1 µM, first compound 10 µM
[25] = second compound 3.16 µM, first compound 0.0316 µM
[26] = second compound 3.16 µM, first compound 0.1 µM
[27] = second compound 3.16 µM, first compound 0.316 µM
[28] = second compound 3.16 µM, first compound 1 µM
[29] = second compound 3.16 µM, first compound 3.16 µM
[30] = second compound 3.16 µM, first compound 10 µM
[31] = second compound 10 µM, first compound 0.0316 µM
[32] = second compound 10 µM, first compound 0.1 µM
[33] = second compound 10 µM, first compound 0.316 µM
[34] = second compound 10 µM, first compound 1 µM
[35] = second compound 10 µM, first compound 3.16 µM
[36] = second compound 10 µM, first compound 10 µM
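Note: spheroids exposed to compounds for one week before readout.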
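Throughout, for viability, T/C: luminescence used as stand-in measure of viable cells; 100% = DMSO vehicle control viability.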

C#Cc1c(F)ccc2cc(O)cc(-c3ncc4c(N5CC6CCC(C5)N6)nc(OCC56CCCN5CC(F)C6)nc4c3F)c12 (stereo unspecified) + COC1C(OC(N)=O)C(O)C(Oc2ccc3c(O)c(NC(=O)c4ccc(O)c(CC=C(C)C)c4)c(=O)oc3c2C)OC1(C)C
inactive: viability, T/C [1] 101% | viability, T/C [2] 95.3% | viability, T/C [3] 103% | viability, T/C [4] 95.4% | viability, T/C [5] 97.7% | viability, T/C [6] 101% | viability, T/C [7] 97.6% | viability, T/C [8] 91.9% | viability, T/C [9] 102% | viability, T/C [10] 103% | viability, T/C [11] 101% | viability, T/C [12] 110% | viability, T/C [13] 97.7% | viability, T/C [14] 103% | viability, T/C [15] 104% | viability, T/C [16] 95.3% | viability, T/C [17] 99.3% | viability, T/C [18] 100% | viability, T/C [19] 84.9% | viability, T/C [20] 92% | viability, T/C [21] 91.2% | viability, T/C [22] 104% | viability, T/C [23] 102% | viability, T/C [24] 96.7% | viability, T/C [25] 100% | viability, T/C [26] 111% | viability, T/C [27] 92.1% | viability, T/C [28] 111% | viability, T/C [29] 94.5% | viability, T/C [30] 91.4% | viability, T/C [31] 95.3% | viability, T/C [32] 105% | viability, T/C [33] 98.4% | viability, T/C [34] 98% | viability, T/C [35] 91.8% | viability, T/C [36] 103%
> 10 µM: IC50 (second compound 0.0316 µM) | IC50 (second compound 0.1 µM) | IC50 (second compound 0.316 µM) | IC50 (second compound 1 µM) | IC50 (second compound 3.16 µM) | IC50 (second compound 10 µM)

CC1COCCN1c1cc(C2(O)CC3CCC(C2)O3)c2cnn(-c3ccn[nH]3)c2n1 (stereo unspecified) + COC1C(OC(N)=O)C(O)C(Oc2ccc3c(O)c(NC(=O)c4ccc(O)c(CC=C(C)C)c4)c(=O)oc3c2C)OC1(C)C
active: viability, T/C [2] 6.83% | viability, T/C [3] 8.23% | viability, T/C [4] 5.44% | viability, T/C [5] 4.27% | viability, T/C [6] 4.51% | viability, T/C [8] 6.51% | viability, T/C [9] 4.34% | viability, T/C [10] 4.52% | viability, T/C [11] 3.9% | viability, T/C [12] 4.57% | viability, T/C [14] 9.96% | viability, T/C [15] 4.64% | viability, T/C [16] 3.57% | viability, T/C [17] 5.27% | viability, T/C [18] 4% | viability, T/C [20] 6.76% | viability, T/C [21] 4.22% | viability, T/C [22] 4.87% | viability, T/C [23] 4.41% | viability, T/C [24] 3.65% | viability, T/C [26] 8.52% | viability, T/C [27] 4.99% | viability, T/C [28] 4.02% | viability, T/C [29] 4.45% | viability, T/C [30] 4.43% | viability, T/C [32] 7.77% | viability, T/C [33] 5.61% | viability, T/C [34] 5.07% | viability, T/C [35] 4.2% | viability, T/C [36] 4.18%
inactive: viability, T/C [1] 17.2% | viability, T/C [7] 17.1% | viability, T/C [13] 22.7% | viability, T/C [19] 27.2% | viability, T/C [25] 21% | viability, T/C [31] 29.5%
< 0.0316 µM: IC50 (second compound 0.0316 µM) | IC50 (second compound 0.1 µM) | IC50 (second compound 0.316 µM) | IC50 (second compound 1 µM) | IC50 (second compound 3.16 µM) | IC50 (second compound 10 µM)

CCc1cc2c(N3CCc4c(cc(Cn5ccnc5)cc4-c4cn(C)nc4C(F)(F)F)C3=O)ccnc2c(OC)n1 + COC1C(OC(N)=O)C(O)C(Oc2ccc3c(O)c(NC(=O)c4ccc(O)c(CC=C(C)C)c4)c(=O)oc3c2C)OC1(C)C
inactive: viability, T/C [1] 92.8% | viability, T/C [2] 74.9% | viability, T/C [3] 88% | viability, T/C [4] 91.1% | viability, T/C [5] 83% | viability, T/C [6] 66.3% | viability, T/C [7] 89.4% | viability, T/C [8] 87% | viability, T/C [9] 83.2% | viability, T/C [10] 83.3% | viability, T/C [11] 77.6% | viability, T/C [12] 67.6% | viability, T/C [13] 89.8% | viability, T/C [14] 90.9% | viability, T/C [15] 71.5% | viability, T/C [16] 81% | viability, T/C [17] 75.3% | viability, T/C [18] 71.8% | viability, T/C [19] 88.6% | viability, T/C [20] 89.6% | viability, T/C [21] 79.5% | viability, T/C [22] 74.9% | viability, T/C [23] 79.5% | viability, T/C [24] 63.2% | viability, T/C [25] 97.4% | viability, T/C [26] 83.8% | viability, T/C [27] 78.8% | viability, T/C [28] 84.5% | viability, T/C [29] 73.5% | viability, T/C [30] 70.5% | viability, T/C [31] 99.2% | viability, T/C [32] 89.8% | viability, T/C [33] 84.9% | viability, T/C [34] 77.5% | viability, T/C [35] 73.6% | viability, T/C [36] 72.2%
> 10 µM: IC50 (second compound 0.0316 µM) | IC50 (second compound 0.1 µM) | IC50 (second compound 0.316 µM) | IC50 (second compound 1 µM) | IC50 (second compound 3.16 µM) | IC50 (second compound 10 µM)
